Reference: patent publication US9156790B2, “Anticancer P21-activated kinase inhibitors” (Ohio State Innovation Foundation, priority 2013, dated 2015)
Entries after “also recorded” stand apart in the source; their conditions may differ. Read-outs that look alike come from different tables or passages of the source.

Tests used:
CDK1/cyclinB = CDK1/cyclinB (Homo sapiens, UniProt P06493); experiment: Kinase profiling panel: CDK1/cyclinB; type: biochemical; settings: 5 μM compound; average of triplicate
CDK1/cyclinB, sequence (P06493 whole entry, species assumed): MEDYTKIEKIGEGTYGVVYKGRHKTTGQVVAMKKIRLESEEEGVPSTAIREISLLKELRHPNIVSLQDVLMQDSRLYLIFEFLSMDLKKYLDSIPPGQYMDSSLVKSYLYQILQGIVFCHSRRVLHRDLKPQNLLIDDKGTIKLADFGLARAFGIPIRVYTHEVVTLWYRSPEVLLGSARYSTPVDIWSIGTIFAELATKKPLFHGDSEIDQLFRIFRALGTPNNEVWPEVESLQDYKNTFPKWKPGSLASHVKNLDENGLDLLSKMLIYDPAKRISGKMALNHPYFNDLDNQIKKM
CDK1/cyclinB, sequence (P14635 whole entry partner, species assumed): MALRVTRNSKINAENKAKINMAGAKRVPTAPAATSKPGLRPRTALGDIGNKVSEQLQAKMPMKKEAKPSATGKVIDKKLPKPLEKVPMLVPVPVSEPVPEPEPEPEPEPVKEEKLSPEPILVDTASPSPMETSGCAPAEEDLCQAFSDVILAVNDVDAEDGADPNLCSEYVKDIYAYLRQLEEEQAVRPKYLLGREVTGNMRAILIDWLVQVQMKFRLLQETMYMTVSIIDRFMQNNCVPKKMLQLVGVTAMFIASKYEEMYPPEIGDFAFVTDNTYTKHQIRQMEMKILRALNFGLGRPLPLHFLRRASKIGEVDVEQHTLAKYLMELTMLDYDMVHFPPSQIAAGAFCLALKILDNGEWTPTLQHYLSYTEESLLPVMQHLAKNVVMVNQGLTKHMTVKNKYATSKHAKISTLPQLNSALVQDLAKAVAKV
Experimental: (§1) To further probe the selectivity of the compounds 4 and 15, they were subjected for kinase profiling service for screening against a panel of other kinases selected based on the kinase tree at 5 μM concentration, at or above the IC50 for the two compounds versus PAK in both in vitro and cell-based assays. […] PAK1 was not available for testing using this system thus it was not possible to compare directly in this assay system.

CHK1 = CHK1 (Homo sapiens, UniProt O14757); experiment: Kinase profiling panel: CHK1; type: biochemical; settings: 5 μM compound; average of triplicate
CHK1, sequence (O14757 whole entry, species assumed): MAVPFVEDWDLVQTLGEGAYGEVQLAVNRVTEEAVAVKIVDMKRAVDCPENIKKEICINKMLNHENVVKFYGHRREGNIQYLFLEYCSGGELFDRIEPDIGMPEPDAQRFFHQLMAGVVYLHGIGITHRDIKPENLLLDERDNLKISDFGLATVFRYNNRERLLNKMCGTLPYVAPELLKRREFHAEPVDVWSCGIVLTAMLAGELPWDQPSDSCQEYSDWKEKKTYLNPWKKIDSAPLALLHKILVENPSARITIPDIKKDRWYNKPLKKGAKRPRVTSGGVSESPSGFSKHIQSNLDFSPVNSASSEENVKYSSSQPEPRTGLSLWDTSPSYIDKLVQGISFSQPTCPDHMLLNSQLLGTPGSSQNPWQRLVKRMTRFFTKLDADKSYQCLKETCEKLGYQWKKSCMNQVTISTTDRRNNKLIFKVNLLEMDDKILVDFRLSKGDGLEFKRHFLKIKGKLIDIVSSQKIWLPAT
Experimental: as §1

EGFR = EGFR (Homo sapiens, UniProt P00533); experiment: Kinase profiling panel: EGFR; type: biochemical; settings: 5 μM compound; average of triplicate
Experimental: as §1

GSK3β = GSK3β (Homo sapiens, UniProt P49841); experiment: Kinase profiling panel: GSK3β; type: biochemical; settings: 5 μM compound; average of triplicate
GSK3β, sequence (P49841 whole entry, species assumed): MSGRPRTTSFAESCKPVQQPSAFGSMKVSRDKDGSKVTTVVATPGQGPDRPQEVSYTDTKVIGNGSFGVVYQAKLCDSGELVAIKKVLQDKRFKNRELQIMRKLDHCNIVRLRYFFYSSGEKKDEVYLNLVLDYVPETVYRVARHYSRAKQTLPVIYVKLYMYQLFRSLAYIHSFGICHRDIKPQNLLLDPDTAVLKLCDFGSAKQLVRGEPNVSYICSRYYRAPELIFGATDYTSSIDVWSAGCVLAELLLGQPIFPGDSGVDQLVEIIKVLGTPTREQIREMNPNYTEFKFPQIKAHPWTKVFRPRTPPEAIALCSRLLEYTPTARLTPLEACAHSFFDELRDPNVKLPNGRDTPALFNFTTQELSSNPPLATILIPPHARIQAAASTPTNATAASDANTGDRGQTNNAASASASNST
Experimental: as §1

MEK1 = MEK1 (Homo sapiens, UniProt Q02750); experiment: Kinase profiling panel: MEK1; type: biochemical; settings: 5 μM compound; average of triplicate
Experimental: as §1

PAK4 = PAK4 (Homo sapiens, UniProt O96013); experiment: Kinase profiling panel: PAK4; type: biochemical; settings: 5 μM compound; average of triplicate
Experimental: as §1

PAK5 = PAK5 (Homo sapiens, UniProt Q9P286); experiment: Kinase profiling panel: PAK5; type: biochemical; settings: 5 μM compound; average of triplicate
PAK5, sequence (Q9P286 whole entry): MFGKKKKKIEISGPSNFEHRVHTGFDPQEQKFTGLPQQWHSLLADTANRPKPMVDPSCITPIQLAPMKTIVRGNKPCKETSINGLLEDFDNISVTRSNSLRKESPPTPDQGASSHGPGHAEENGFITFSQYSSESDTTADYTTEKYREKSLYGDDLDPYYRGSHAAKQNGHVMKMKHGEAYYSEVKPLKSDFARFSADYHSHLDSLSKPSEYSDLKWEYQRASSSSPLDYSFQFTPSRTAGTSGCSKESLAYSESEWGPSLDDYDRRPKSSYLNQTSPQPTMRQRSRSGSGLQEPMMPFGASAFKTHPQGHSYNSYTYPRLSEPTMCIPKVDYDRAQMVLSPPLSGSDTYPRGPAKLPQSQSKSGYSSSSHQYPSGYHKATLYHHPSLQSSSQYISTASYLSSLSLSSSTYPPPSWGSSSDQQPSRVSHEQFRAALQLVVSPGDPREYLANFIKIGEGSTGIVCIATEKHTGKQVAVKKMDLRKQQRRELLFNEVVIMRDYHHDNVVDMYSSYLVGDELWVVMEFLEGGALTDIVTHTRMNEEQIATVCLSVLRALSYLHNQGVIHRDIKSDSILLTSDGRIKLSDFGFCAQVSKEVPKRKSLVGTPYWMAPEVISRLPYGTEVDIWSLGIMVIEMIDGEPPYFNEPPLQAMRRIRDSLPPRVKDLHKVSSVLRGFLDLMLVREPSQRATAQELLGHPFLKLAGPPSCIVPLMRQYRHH
Experimental: as §1

PKBα = PKBα (Homo sapiens, UniProt P31749); experiment: Kinase profiling panel: PKBα; type: biochemical; settings: read-out: % activity vs. DMSO, PKBα
PKBα, sequence (P31749 whole entry, species assumed): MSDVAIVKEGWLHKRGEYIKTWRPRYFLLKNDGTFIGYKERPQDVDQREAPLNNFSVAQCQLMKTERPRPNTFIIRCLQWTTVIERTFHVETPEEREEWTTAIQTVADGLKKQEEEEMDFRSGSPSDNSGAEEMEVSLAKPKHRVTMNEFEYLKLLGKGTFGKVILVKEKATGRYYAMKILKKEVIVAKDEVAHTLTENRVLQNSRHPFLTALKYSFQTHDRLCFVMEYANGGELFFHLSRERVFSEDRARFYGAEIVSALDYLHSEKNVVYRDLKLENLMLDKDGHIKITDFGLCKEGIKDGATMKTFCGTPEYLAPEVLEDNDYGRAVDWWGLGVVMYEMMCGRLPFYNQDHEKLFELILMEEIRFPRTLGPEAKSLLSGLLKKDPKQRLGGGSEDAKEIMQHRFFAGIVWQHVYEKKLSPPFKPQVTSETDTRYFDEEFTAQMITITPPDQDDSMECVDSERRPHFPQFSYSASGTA
Experimental: as §1

PKBγ = PKBγ (Homo sapiens, UniProt Q9Y243); experiment: Kinase profiling panel: PKBγ; type: biochemical; settings: 5 μM compound; for remaining activity at 5 µM: average of triplicate, read-out: % activity vs. DMSO, PKBγ
PKBγ, sequence (Q9Y243 whole entry, species assumed): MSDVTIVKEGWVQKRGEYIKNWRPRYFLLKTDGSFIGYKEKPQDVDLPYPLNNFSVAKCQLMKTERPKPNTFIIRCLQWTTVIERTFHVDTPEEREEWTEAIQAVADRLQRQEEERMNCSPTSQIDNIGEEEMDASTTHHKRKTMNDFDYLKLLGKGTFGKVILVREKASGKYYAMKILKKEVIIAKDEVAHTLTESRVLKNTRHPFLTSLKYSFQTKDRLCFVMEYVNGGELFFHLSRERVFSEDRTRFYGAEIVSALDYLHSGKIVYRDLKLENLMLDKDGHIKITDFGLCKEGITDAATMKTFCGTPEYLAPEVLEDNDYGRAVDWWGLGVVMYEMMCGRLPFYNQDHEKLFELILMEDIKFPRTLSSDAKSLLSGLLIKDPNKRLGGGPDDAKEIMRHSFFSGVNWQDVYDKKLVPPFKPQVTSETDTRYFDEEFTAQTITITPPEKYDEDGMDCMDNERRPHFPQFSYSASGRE
Experimental: as §1

ROCK-II = ROCK-II (Homo sapiens, UniProt O75116); experiment: Kinase profiling panel: ROCK-II; type: biochemical; settings: 5 μM compound; average of triplicate
ROCK-II, sequence (O75116 whole entry, species assumed): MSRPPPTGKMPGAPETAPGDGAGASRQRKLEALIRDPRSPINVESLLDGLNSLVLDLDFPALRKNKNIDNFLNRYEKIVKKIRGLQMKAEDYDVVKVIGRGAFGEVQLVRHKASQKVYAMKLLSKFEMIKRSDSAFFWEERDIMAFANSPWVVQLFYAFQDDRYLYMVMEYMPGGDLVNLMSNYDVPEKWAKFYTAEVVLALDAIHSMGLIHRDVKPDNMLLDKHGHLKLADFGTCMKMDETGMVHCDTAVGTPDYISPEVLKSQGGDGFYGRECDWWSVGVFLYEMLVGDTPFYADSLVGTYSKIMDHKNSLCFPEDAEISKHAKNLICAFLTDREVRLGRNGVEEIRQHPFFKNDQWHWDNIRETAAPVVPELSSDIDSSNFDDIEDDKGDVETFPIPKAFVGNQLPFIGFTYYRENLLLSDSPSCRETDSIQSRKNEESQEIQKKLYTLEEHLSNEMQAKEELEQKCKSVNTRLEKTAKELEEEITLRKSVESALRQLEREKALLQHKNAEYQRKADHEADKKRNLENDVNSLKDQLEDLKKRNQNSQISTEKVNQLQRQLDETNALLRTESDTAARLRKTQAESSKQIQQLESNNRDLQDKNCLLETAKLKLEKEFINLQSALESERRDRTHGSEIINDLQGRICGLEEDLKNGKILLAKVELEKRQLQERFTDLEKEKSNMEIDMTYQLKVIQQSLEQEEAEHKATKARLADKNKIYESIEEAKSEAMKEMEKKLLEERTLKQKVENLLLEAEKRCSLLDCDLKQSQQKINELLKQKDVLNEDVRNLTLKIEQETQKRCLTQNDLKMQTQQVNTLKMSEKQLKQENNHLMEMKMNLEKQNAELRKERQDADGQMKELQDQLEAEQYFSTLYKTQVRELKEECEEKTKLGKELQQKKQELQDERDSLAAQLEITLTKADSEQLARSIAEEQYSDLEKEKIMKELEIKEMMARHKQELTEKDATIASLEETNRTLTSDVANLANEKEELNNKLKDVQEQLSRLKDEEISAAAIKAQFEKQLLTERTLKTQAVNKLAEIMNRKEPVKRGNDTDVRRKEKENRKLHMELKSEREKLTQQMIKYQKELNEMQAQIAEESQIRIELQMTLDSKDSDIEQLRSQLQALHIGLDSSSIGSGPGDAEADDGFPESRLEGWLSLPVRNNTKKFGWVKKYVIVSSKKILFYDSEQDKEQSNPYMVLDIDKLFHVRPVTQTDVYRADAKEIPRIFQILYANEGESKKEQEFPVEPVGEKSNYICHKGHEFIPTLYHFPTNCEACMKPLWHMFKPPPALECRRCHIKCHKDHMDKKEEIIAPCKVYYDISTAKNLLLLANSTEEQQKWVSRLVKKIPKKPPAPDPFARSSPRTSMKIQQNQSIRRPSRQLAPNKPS
Experimental: as §1

SGK = molecular target: T1, SGK (Homo sapiens, UniProt O00141); experiment: Kinase profiling panel: SGK; type: biochemical; settings: 5 μM compound; for % activity vs. DMSO, SGK: average of triplicate
T1 sequence (O00141 1-431): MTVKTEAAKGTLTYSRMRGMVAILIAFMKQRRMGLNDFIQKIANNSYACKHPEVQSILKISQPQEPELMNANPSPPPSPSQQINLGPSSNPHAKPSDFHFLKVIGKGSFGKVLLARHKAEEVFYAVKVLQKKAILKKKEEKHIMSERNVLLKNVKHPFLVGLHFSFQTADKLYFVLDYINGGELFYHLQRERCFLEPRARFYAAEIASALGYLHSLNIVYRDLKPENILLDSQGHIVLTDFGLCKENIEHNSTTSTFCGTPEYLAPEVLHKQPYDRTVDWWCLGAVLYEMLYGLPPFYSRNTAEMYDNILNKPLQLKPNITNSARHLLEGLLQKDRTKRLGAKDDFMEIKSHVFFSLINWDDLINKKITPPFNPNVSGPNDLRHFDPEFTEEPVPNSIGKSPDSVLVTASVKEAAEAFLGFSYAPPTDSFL
Experimental: as §1

ERK phosphorylation = experiment: Western blot, ERK phosphorylation in thyroid cancer cells; type: cell-based, Human; settings: 6 hours
Experimental: (§2) Protein isolation and Western blot were performed as previously described. Ringel et al., Cancer research 61:6105-6111 (2001). 25 μg of total cell lysates were loaded into 4-12% SDS-PAGE, electrophoresed, and transferred to nitrocellulose membranes for immunoblotting. Primary antibodies against Akt (#9272), phospho-Akt (Thr308) (#2965), p44/42 MAPK (Erk1/2) (#9107), phospho-p44/42 MAPK (Erk1/2) (Thr202/Tyr204) (#4377) and GAPDH (#2118) were obtained from Cell Signaling Technology (Danvers, Mass., USA). Antibody against Vimentin (V6630) and phospho-Ser55 Vimentin were from Sigma-Aldrich, Inc. (St. Louis, Mo.) and MBL Co. (Nagoya, Japan), respectively. Antibodies against total and phosphorylated S6 were from Cell Signaling Technology®.
(§3) The dose-dependency of compounds 4 and 15 was next assessed (FIG. 4). […] Due to the important role that ERK activation plays in thyroid cancer, and its signaling activation by thyroid oncogenes, the effects of the compounds on ERK phosphorylation was also assessed.

S6 phosphorylation = experiment: Western blot, S6 phosphorylation in thyroid cancer cells; type: cell-based, Human; settings: for S6 phosphorylation, BCPAP and TPC1 cells: BCPAP and TPC1 cells (FIG. 4B)
Experimental: as §2, §3

TPC1 cells = experiment: Boyden chamber migration assay, TPC1; type: cell-based, Human; settings: 5 μM, 24 hours, P<0.05 versus DMSO
Experimental: Cells were grown in media containing 10% FBS. After 24 hours, the medium was aspirated, and media containing 1% FBS was added for 24 hours. The cells were trypsinized for 2 to 5 minutes, washed, and resuspended in media containing 1% FBS. The cell concentration was calculated by hemocytometer. Four hundred μl 1% FBS medium was added into 24-well plates, and a Boyden chamber (8 μm pore) was inserted into each well. Cells were added to each insert, and were allowed to attach in an incubator at 37° C. at 5% CO2 for 2 hours. The cells were then exposed to various concentrations of drugs or control diluent for 3 hours. The inserts were switched to a new well containing media containing 10% FBS, and the chamber was incubated for 12 or 24 hours depending on the migration rate of the cell line. The cells on and under the Boyden chamber membrane were fixed with 3.7% formaldehyde containing 0.05% crystal violet for 15 min after washing cells with PBS. The chambers were washed with distilled water. […] The Q-tips containing the scraped cells and the Boyden chamber containing the non-migrated cells were separately incubated in 80% methanol, shaken at 500 g for 30 minutes, and the extracted dye was measured at 570 nm. Migration was quantified as the ratio of the migrated cells over the total cells (non-migrated plus […]). […]

other PAK kinases = experiment: Kinase profiling panel: other PAK kinases (summary statement); type: biochemical; settings: 5 μM compound
Experimental: as §1

Structure (SMILES)	% activity vs. DMSO, CDK1/cyclinB (CDK1/cyclinB) [%]	% activity vs. DMSO, CHK1 (CHK1) [%]	% activity vs. DMSO, EGFR (EGFR) [%]	% activity vs. DMSO, GSK3β (GSK3β) [%]	% activity vs. DMSO, MEK1 (MEK1) [%]	% activity vs. DMSO, PAK4 (PAK4) [%]	% activity vs. DMSO, PAK5 (PAK5) [%]	remaining activity at 5 µM (PKBγ) [%]	% activity vs. DMSO, ROCK-II (ROCK-II) [%]	% activity vs. DMSO, SGK (SGK) [%]	S6 phosphorylation, BCPAP and TPC1 cells (S6 phosphorylation)	Migration of TPC1 cells (TPC1 cells)	Activity versus other PAK kinases (other PAK kinases)	further results
NCCC(=O)Nc1ccc(-n2nc(C(F)(F)F)cc2-c2ccc3ccc4ccccc4c3c2)cc1 [Compound 4, 3-amino-N-(4-(5-(phenanthren-3-yl)-3-(trifluoromethyl)-1H-pyrazol-1-yl)phenyl)-propanamide]	83	82	99	170	106	101	114	33	79	27	inhibited this phosphorylation	decreased cell motility; also recorded: inhibited migration	did not have activity versus other PAK kinases	remaining activity at 5 µM (PKBα; 5 μM compound, average of triplicate): 103%; inhibition at 5 µM (PKBγ): > 50%; inhibition at 5 µM (SGK): > 50%; ERK phosphorylation, all three cell lines (ERK phosphorylation; dose-response, BCPAP, FTC133 and TPC1 cells): no demonstrable effects on ERK phosphorylation
CC(C)NC(=O)c1cc(-c2ccc3ccc4ccccc4c3c2)n(-c2ccc(NC(=O)CN)cc2)n1 [Compound 15, 1-(4-(2-Aminoacetamido)phenyl)-N-isopropyl-5-(phenanthren-3-yl)-1H-pyrazole-3-carboxamide]	95	89	100	137	101	105	104	56	96	64	inhibited 56 phosphorylation	decreased cell motility; also recorded: inhibited migration	did not have activity versus other PAK kinases	remaining activity at 5 µM (PKBα): 99%; ERK phosphorylation, BCPAP cells (ERK phosphorylation; 2.5 μM, BCPAP cells (BRAF V600E)): inhibited ERK phosphorylation; ERK phosphorylation, other two cell lines (ERK phosphorylation; FTC133 and TPC1 cells): at higher concentrations; S6 phosphorylation, FTC133 cells (S6 phosphorylation; FTC133 cells (FIG. 4B)): inhibited 56 phosphorylation
